According to US12002595B2, “Separation of metal ions by liquid-liquid extraction” (priority 2016, dated 2024):
Like-named read-outs stand apart in the source and are kept apart here.

How the values were obtained:
[1] = Eu(III), cited from earlier work
[2] = Extraction of plutonium(IV) by HDEHP as a function of pH with hold-back reagent; conditions: for % Extraction: 40 mM hold-back reagent, 0.5 M HDEHP
Description: All liquid-liquid extractions were conducted using a 1:1 organic to aqueous phase ratio for a total volume of 1 mL. Samples were pH adjusted by HNO3 and prepared for a final concentration of 1.0 M sodium lactate, 40 mM of hold-back reagent (160 mM in the case of the HOPO monomer), and 2.0 M Na^+. The concentration of the trivalent f-element was dependent on the availability and radioactivity of the isotopes. The organic phase consisted of 0.5 M HDEHP in kerosene. All samples were incubated in a thermostatic shaker held at 28° C. and rocked at 280 rpm for 90 minutes. To ensure complete phase separation, samples were left overnight at room temperature to equilibrate. Radioactive samples were analyzed by liquid scintillation counting (LSC). The analytical protocol consisted of diluting 10 uL of radioactive sample into 10 mL of Ultima Gold™. Ultima Gold™ is a commercially available analytical reagent commonly used for LSC. The resulting analytical samples were shaken for 10 min prior to counting on a Perkin-Elmer Packard Tri-Carb instrument (model B4430).
Data was analyzed by the distribution ratio (Dm), separation factor (SFm1/m2) and extraction percentage (% Extraction) as defined by Equations (6), (7) and (8), respectively. Equation (8) uses concentrations of the metal in each phase since the aqueous: organic ratio was 1. Both the organic and aqueous phases were analyzed after liquid-liquid extraction and phase separation. These calculation methods rely on the assumptions that no metal (M) is lost to sorption or precipitation and that no volume variation occurred during the mass transfer between the aqueous and organic phases.
In FIG. 18, aqueous phase: [ligand]=40 mM, buffer sodium lactate/sodium nitrate, organic phase: [HDEHP]=0.5 M, kerosene diluent. T=25° C. O/A=1, one contact. Initial metal concentrations: [Pu-242]=5 μM. Phases analyzed after one contact. Contact time: 30 min. Limit of detection: 0.03% of the initial Pu-242 activity. Data for separation of tetravalent metal ions from trivalent metal ions using 3,4,3-LI(1,2-HOPO) as a hold-back reagent for tetravalent metal ions are shown in TABLE 0.1.

[3] = Stability constant (log β) of ligand-metal complexes; type: binding; conditions: Log β110 (Th^4+) versus Log β110 (Eu^3+)
Description: Solution Thermodynamics. All titrant solutions were degassed by boiling for 1 h while being purged under Ar. Carbonate-free 0.1 M KOH was prepared from concentrate (J. T Baker Dilut-It) and was standardized by titrating against 0.1 M potassium hydrogen phthalate (99.95%, Sigma Aldrich). Solutions of 0.1 M HCl were similarly prepared and were standardized by titrating against TRIS (99.9%, J. T. Baker). The glass electrode (Metrohm—Micro Combi—response to [H+]) used for the pH measurements was calibrated at 25.0° C. and at an ionic strength of 0.1 M (KCl) before each potentiometric or spectrophotometric titration. The calibration data were analyzed using the program GLEE (Gans & O'Sullivan, Talanta, 2000, 51 (1): 33-37) to refine for the E° and slope. All thermodynamic measurements were conducted at 25.0° C., in 0.1 M KCl supporting electrolyte under positive Ar gas pressure. The automated titration system was controlled by an 867 pH Module (Metrohm). Two-milliliter Dosino 800 burets (Metrohm) dosed the titrant (0.1 M KOH or 0.1 M HCl) into the thermostated titration vessel (5-90 mL). UV-visible spectra were acquired with an Ocean Optics USB4000-UV-vis spectrometer equipped with a TP-300 dip probe (Ocean Optics; path length of 10 mm), fiber optics and a DH-2000 light source (deuterium and halogen lamps). The fully automated titration system and the UV-vis spectrophotometer were coordinated by LBNL titration system, a computer program developed in house.
Incremental Spectrophotometric Titrations. This method was used to determine the protonation constants of 3,4,3-LI(CAM) as well as the stability constants of its complexes formed with Eu(III), Zr(IV) and ^232Th(IV). The experimental titration setup is similar to previously described systems (Sturzbecher-Hoehne, et al., Radiochimica Acta., 2013, 101 (6): 359-366). For the 3,4,3-LI(CAM) protonation (and Eu(III)-3,4,3-LI(CAM) complexes), titrations were performed with an initial concentration of 50 μM of 3,4,3-LI(CAM) (and 50 μM of Eu(III)) resulting in absorbance values included between 0 and 1.0 throughout the titration. Typically, 9 mL of a sample containing 3,4,3-LI(CAM) (and Eu(III)) and the supporting electrolyte (KCl/HCl) were incrementally perturbed by addition of 0.025 mL of carbonate-free 0.1 M KOH followed by a time delay of 80 s. Buffering of the solution was ensured by the addition of 10 mM of HEPES, 10 mM of CHES and 10 mM of MES. Between 130 and 250 data points were collected per titration, each data point including a pH measurement and a UV-Vis spectrum (250-450 nm) over the pH range 1.5 to 12.0. All spectra were corrected for dilution before data fitting. The entire procedure (electrode calibrate, titration and data treatment) was performed independently five times for the protonation constants and four times for the Eu(III)-3,4,3-LI(CAM) complexes. For the Zr(IV) and Th(IV) complexes, titrations were performed similarly but in the presence of DTPA to avoid the formation of metal hydroxides at low pH, before the uptake by 3,4,3-LI(CAM). For each metal, three titrations were performed independently in the presence of 1.1 to 40 equivalents of DTPA.
Data Treatment. […] All metal and chelator concentrations were held at estimated values determined from the volume of standardized stock solutions. All species formed with 3,4,3-LI(CAM) were considered to have significant absorbance to be observed in the UV-vis spectra and were therefore included in the refinement process. […]

| SMILES | log β111 ([1]; I=0.1 M at 25° C.) | % Extraction ([2]; pH 0.25) [%] | % Extraction ([2]; pH 0.85) [%] | % Extraction ([2]; pH 1.78) [%] | % Extraction ([2]; pH 2.71) [%] | % Extraction ([2]; pH 2.87) [%] | % Extraction ([2]; pH 3.62) [%] | % Extraction ([2]; pH 4.52) [%] | extraction yield of Pu^4+ (upper limit, instrumental detection limit) ([2]; value plotted on FIG. 18, all tested pH) [%] | Δ log β [3] | log β111 ([1]; I=2.0 M at 25° C.) | % Extraction ([2]; pH 0.40) [%] | % Extraction ([2]; pH 1.27) [%] | % Extraction ([2]; pH 1.84) [%] | % Extraction ([2]; pH 2.55) [%] | % Extraction ([2]; pH 2.75) [%] | % Extraction ([2]; pH 3.45) [%] | % Extraction ([2]; pH 4.29) [%] |
| --- | --- | --- | --- | --- | --- | --- | --- | --- | --- | --- | --- | --- | --- | --- | --- | --- | --- | --- |
| O=C(NCCCN(CCCCN(CCCNC(=O)c1cccc(=O)n1O)C(=O)c1cccc(=O)n1O)C(=O)c1cccc(=O)n1O)c1cccc(=O)n1O [3,4,3-LI(1,2-HOPO)] | 24.8 | 0.00 | 0.00 | 0.00 | 0.00 | 0.00 | 0.00 | 0.00 | ≤ 0.03 | 19.9 |  |  |  |  |  |  |  |  |
| O=C(O)CN(CCN(CC(=O)O)CC(=O)O)CCN(CC(=O)O)CC(=O)O [DTPA, Diethylenetriaminepentaacetic acid, reference compound] |  |  |  |  |  |  |  |  |  | 6.3 | 22.56 | 95.24 | 4.08 | 1.17 | 0.63 | 0.73 | 0.65 | 0.29 |
